pIC50: −log10 of the molar value.

The subject of assay [1] is healthy volunteers. The note with it: after seven days of carbenoxolone treatment; cited from earlier work.
Assay [2] deals with T1, human 11βHSD1 (Homo sapiens, UniProt P28845).
T1 construct: made in house; host or cells: HEK-293 transient transfectants; clarified lysate, not purified
Nature of the assay: Enzymatic assay of 11βHSD1 (Scintillation Proximity Assay, clarified lysates). The assay is classed as biochemical. As to conditions: SPA, HEK-293 lysate expressing full-length human 11βHSD1, 25 nM 3H-cortisone, 400 μM NADPH, 37° C., one hour. The method, then: Enzymatic assay of 11βHSD1
All in vitro assays were performed with clarified lysates as the source of 11βHSD1 activity. HEK-293 transient transfectants expressing an epitope-tagged version of full-length human 11βHSD1 were harvested by centrifugation. Roughly 2×10^7 cells were resuspended in 40 mL of lysis buffer (25 mM Tris-HCl, pH 7.5, 0.1 M NaCl, 1 mM MgCl2 and 250 mM sucrose) and lysed in a microfluidizer. Lysates were clarified by centrifugation and the supernatants were aliquoted and frozen.
Inhibition of 11βHSD1 by test compounds was assessed in vitro by a Scintillation Proximity Assay (SPA). Dry test compounds were dissolved at 5 mM in DMSO. These were diluted in DMSO to suitable concentrations for the SPA assay. 0.8 μL of 2-fold serial dilutions of compounds were dotted on 384 well plates in DMSO such that 3 logs of compound concentration were covered. 20 μL of clarified lysate was added to each well. Reactions were initiated by addition of 20 μL of substrate-cofactor mix in assay buffer (25 mM Tris-HCl, pH 7.5, 0.1 M NaCl, 1 mM MgCl2) to final concentrations of 400 μM NADPH, 25 nM ^3H-cortisone and 0.007% Triton X-100. Plates were incubated at 37° C. for one hour. […] Quenched plates were incubated for a minimum of 30 minutes at RT prior to reading on a Topcount scintillation counter. […]
A general note: SPA uses beads or plates that emit light when radiolabelled molecules are held near them.

T1 sequence (P28845 whole entry): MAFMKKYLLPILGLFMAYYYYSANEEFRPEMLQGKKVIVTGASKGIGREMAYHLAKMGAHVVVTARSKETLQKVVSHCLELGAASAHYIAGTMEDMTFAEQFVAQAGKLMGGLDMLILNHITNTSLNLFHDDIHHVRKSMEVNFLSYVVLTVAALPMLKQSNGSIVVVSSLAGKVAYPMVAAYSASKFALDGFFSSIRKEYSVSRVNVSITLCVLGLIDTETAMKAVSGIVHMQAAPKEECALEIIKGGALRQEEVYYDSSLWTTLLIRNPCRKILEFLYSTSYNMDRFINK

On to `CC1(C)[C@@H](OC(=O)CCC(=O)O)CC[C@]2(C)[C@H]3C(=O)C=C4[C@@H]5C[C@@](C)(C(=O)O)CC[C@]5(C)CC[C@@]4(C)[C@]3(C)CC[C@@H]12` [carbenoxolone], for which the “IOP was reduced by” value in assay [1] is 18%. As to `CC(=O)N1CCC2(CC(C3(c4ccc(Cl)cc4)CC3)=NO2)C1` (centres unmarked) [Example 1, 7-Acetyl-3-[1-(4-chlorophenyl)cyclopropyl]-1-oxa-2,7-diazaspiro[4.4]non-2-ene], in assay [2], the pIC50 was above 5.30.

Broadly, the pIC50 is −log10 of the IC50, conventionally taken in molar units. Read a high pIC50 as a low IC50.

(Values after patent US20070208001A1, “Modulators of 11- beta hydroxyl steroid dehydrogenase type 1, pharmaceutical compositions thereof, and methods of using the same” (priority 2006, published 2007).)
